Assay [1] has as its target T1, D(4) dopamine receptor (Homo sapiens, UniProt P21917).
T1 sequence (P21917 whole entry): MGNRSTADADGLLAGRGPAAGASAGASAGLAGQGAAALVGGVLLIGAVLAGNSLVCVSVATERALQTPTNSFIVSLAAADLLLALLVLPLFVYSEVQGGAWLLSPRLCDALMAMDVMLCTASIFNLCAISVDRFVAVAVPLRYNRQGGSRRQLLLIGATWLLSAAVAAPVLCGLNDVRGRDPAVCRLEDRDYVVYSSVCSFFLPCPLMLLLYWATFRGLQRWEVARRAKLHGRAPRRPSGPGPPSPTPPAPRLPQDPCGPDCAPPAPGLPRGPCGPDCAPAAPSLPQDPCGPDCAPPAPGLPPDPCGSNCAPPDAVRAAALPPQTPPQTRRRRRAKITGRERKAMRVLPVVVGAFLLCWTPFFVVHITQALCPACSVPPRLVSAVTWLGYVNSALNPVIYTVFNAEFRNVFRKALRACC
Put plainly: Agonist activity was calculated in calcium flux assay using HEK293 cells co-transfected with human Dopamine receptor D4.4 and Galphaqo5. It is filed as functional, cell-based.

Assay [2] deals with T1, D(4) dopamine receptor. Put plainly: In vitro ability to inhibit [3H]6b binding to human Dopamine receptor D4.4.
In assay [3] the target is T1, D(4) dopamine receptor. Put plainly: In vitro ability to inhibit [3H]spiperone binding to human Dopamine receptor D4.4.
The target of assay [4] is T2, D(4) dopamine receptor (Homo sapiens) (UniProt P21917).
T2 sequence (whole entry): T1 sequence (P21917 whole entry)
Put plainly: Efficacy in calcium flux assay using HEK293 cells co-transfected with human Dopamine receptor D4.4 and G-alpha-qo5 relative to 10 uM dopamine. It is filed as functional, cell-based.

Assay [5] concerns the target T1, D(4) dopamine receptor. Put plainly: In vitro ability to inhibit [3H]spiperone binding to human Dopamine receptor D4.4 allele.

Results on five molecules are retold here after ChEMBL document CHEMBL1137895, “Synthesis and activity of 2-[4-(4-[3H]-2-cyanophenyl)piperazinyl]-N-(2,4,6-[3H]3-3-methylphenyl)acetamide: a selective dopamine D4 receptor agonist and radioligand” (Bioorg Med Chem Lett, 2004).

Each structure is given as a SMILES string. pEC50, pKi: −log10 of the molar value.

By pEC50 is commonly meant the EC50 on a negative log10 scale, so that one unit is a factor of ten. Usually pKi stands for −log10 of the Ki, conventionally taken in molar units.

As for `Cc1cc(NC(=O)CN2CCN(c3ccc(Br)cc3C#N)CC2)ccc1Br`, the pEC50 at D(4) dopamine receptor [1] is < 5.00. Also, the pKi on D(4) dopamine receptor [2] was 7.85; at D(4) dopamine receptor [3], 7.27.

`COc1ccc(N2CCN(CC(=O)Nc3cccc(C)c3)CC2)cc1`: the pEC50 at D(4) dopamine receptor [1] is < 5.00. Moreover, the pKi at D(4) dopamine receptor [2] is 7.05; at D(4) dopamine receptor [3], 7.00.

On to `Cc1cccc(NC(=O)CN2CCN(c3ccc(F)cc3)CC2)c1`, for which, on D(4) dopamine receptor [1], the pEC50 is < 5.00. Besides, the pKi on D(4) dopamine receptor [2] is 7.04; on D(4) dopamine receptor [3], 7.21.

For `COc1ccccc1N1CCN(CC(=O)Nc2cccc(C)c2)CC1`, in assay [4], the E was 60%. At D(4) dopamine receptor [1], the negative-log EC50 (pEC50) is 7.57. The values for the pKi at D(4) dopamine receptor [2] and on D(4) dopamine receptor [5] were 8.74 and 9.15, respectively.

For the molecule `COc1cccc(N2CCN(CC(=O)Nc3cccc(C)c3)CC2)c1`, the pEC50 at D(4) dopamine receptor [1] is < 5.00. The pKi was 7.41 at D(4) dopamine receptor [2] and 7.34 at D(4) dopamine receptor [3].
